Experimental findings from ChEMBL document CHEMBL1201862, “PubChem BioAssay data set” (2004) are described below.

SMILES strings stand for the structures. Active and inactive are the calls of the source. Cut-off read from the data, not from the text of the source, for most assays here: actives have a measured IC50 and inactives only a lower limit.

Usually AC50 stands for the midpoint of the concentration-response curve, whichever way the signal moves. For orientation: IC50 means the concentration needed to halve the response being measured.

Assay [1] can be described thus: Trypanosoma cruzi growth suppression in host cells – NIH3T3 host cells, beta-gal luminescence, confirmation (AID 2044).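 Note: intracellular parasites grown in NIH/3T3 mouse fibroblasts as host cells; luminescent beta-galactosidase reporter signal from transgenic T. cruzi replicating inside host cells; inhibitors lower the luminescence signal.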 Type of assay: functional, cell-based.
The nature of assay [2]: NIH3T3 cell viability loss – ATP luminescence, mouse fibroblasts, counter-screen, dose response (AID 2010).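 Note: cells exposed to compound for about 90 hours before reading.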 It counts as functional, cell-based.
Assay [3] has as its target T1, Microphthalmia-associated transcription factor (Homo sapiens, UniProt O75030).
T1 sequence (O75030 whole entry): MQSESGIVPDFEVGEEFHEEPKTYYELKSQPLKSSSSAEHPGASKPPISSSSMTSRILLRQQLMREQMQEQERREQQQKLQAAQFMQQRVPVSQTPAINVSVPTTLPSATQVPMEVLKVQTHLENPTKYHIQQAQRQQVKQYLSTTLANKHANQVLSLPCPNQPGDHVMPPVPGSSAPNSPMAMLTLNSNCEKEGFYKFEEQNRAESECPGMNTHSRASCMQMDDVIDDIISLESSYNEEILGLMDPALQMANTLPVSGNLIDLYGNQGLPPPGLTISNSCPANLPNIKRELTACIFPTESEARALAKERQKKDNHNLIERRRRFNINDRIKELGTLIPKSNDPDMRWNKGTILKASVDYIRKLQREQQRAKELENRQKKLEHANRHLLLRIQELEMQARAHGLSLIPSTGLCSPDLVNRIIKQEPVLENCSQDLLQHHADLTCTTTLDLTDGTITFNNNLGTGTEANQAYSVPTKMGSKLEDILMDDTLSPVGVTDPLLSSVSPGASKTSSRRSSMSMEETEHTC
As to the kind of experiment: reducers of TRPM1 reporter luminescence, concentration series – cell-based, SK-MEL-5, cherry-picked, set 3, MITF inhibitor project, dose response (AID 493073).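 Note: SK-MEL-5 melanoma cells with luciferase driven by the MITF target TRPM1 promoter.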 It counts as functional.

The target of assay [4] is V-type proton ATPase subunit c' (Saccharomyces cerevisiae S288c, UniProt P32842). As to the kind of experiment: Dose Response with BCECF Assay for V-ATPase inhibitors that increase vacuolar pH, Powder Set 1. It counts as functional. To be noted: read-out: EC50_MICROM.
V-type proton ATPase subunit c', sequence (P32842 whole entry): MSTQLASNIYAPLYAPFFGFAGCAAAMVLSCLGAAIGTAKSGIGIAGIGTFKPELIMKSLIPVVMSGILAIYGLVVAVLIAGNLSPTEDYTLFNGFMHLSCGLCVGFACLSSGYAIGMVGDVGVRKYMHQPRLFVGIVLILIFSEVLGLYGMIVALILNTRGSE
Assay [5] addresses T2, Sentrin-specific protease 6 (Homo sapiens, UniProt Q9GZR1).
T2 sequence (Q9GZR1 whole entry): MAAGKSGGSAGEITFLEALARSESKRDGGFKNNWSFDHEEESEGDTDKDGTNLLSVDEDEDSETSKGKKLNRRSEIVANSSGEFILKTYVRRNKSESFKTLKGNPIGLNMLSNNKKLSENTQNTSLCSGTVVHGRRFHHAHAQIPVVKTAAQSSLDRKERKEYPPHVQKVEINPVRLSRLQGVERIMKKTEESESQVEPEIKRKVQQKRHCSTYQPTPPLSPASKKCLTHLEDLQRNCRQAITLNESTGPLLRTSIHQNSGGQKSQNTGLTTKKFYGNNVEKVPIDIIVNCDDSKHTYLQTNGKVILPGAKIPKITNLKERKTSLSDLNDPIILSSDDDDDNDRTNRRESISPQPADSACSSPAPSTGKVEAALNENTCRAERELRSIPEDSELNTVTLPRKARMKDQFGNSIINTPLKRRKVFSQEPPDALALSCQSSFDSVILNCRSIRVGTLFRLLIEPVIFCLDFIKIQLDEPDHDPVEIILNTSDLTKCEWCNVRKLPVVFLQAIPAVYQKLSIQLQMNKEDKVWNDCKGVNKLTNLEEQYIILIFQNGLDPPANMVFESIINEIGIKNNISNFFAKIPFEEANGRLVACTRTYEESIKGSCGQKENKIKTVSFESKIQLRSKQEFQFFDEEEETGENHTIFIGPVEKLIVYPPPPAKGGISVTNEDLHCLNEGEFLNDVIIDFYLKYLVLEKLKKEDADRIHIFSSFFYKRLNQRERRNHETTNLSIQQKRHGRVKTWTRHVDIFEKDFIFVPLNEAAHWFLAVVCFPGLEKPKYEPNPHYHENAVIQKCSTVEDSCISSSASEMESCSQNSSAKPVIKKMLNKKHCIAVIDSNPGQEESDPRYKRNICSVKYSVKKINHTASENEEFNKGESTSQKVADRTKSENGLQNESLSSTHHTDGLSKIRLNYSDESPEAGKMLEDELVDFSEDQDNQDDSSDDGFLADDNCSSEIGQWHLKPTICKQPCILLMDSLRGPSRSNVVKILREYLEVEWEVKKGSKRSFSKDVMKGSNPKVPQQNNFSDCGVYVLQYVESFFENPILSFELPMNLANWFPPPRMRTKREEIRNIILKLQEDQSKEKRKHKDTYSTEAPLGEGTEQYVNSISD
As to the kind of experiment: SAR Analysis of small molecule inhibitors of Sentrin-specific protease 6 (SENP6) using a Luminescent assay. [Related pubchem assays (depositor defined):AID2582, AID2599]. It counts as functional.

Assay [6] has as its target T3, Sentrin-specific protease 7 (Homo sapiens, UniProt Q9BQF6).
T3 sequence (Q9BQF6 whole entry): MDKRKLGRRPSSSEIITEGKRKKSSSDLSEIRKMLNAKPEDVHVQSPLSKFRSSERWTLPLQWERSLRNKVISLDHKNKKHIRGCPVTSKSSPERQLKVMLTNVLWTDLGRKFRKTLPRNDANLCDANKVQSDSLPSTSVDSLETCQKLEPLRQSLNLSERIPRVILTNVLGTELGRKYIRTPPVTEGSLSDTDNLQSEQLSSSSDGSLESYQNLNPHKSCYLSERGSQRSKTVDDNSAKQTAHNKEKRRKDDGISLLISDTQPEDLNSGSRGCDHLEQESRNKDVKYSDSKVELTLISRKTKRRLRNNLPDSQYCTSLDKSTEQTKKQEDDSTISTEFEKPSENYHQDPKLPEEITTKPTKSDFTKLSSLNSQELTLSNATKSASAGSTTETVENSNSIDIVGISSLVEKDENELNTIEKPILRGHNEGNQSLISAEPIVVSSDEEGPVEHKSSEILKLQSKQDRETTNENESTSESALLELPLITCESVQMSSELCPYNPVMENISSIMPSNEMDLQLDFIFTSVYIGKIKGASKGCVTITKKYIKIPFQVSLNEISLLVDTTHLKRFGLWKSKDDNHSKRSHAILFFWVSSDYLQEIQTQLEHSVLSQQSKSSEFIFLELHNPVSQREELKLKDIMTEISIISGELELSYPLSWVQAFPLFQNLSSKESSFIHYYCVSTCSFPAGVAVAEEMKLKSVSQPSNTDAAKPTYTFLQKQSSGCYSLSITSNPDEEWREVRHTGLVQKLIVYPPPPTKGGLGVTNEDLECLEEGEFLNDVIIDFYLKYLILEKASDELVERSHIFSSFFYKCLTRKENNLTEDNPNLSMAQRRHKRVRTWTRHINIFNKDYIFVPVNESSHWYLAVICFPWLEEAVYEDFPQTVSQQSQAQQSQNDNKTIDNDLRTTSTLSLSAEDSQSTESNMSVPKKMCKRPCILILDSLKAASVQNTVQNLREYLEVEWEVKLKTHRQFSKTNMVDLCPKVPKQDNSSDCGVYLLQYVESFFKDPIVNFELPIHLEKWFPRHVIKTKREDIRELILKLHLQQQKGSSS
As to the kind of experiment: inhibition of human SENP7 cleavage activity – biochemical, luminescence, SAR follow-up (AID 504497). It counts as functional.

The target of assay [7] is T4, Caspase-3 (Homo sapiens, UniProt P42574).
T4 sequence (P42574 whole entry): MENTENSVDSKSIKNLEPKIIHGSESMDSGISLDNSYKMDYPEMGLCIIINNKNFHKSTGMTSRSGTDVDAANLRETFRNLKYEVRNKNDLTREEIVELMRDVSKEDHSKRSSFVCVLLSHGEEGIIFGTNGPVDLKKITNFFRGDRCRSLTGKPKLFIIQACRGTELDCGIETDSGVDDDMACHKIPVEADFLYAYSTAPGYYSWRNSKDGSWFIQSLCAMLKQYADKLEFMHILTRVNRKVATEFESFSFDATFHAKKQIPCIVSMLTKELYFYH
As to the kind of experiment: SAR Analysis of small molecule inhibitors of Sentrin-specific proteases (SENPs) using a Caspase-3 Selectivity assay. [Related pubchem assays (depositor defined):AID2540, AID2599, AID434973, AID489001]. It counts as functional.

Assay [8] deals with T5, Sentrin-specific protease 8 (Homo sapiens, UniProt Q96LD8).
T5 sequence (Q96LD8 whole entry): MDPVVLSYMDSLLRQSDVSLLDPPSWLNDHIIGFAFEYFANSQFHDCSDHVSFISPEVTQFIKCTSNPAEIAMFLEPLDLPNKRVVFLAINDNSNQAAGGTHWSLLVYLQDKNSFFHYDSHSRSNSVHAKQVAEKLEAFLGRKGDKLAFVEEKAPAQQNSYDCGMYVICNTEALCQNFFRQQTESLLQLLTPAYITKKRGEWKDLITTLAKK
As to the kind of experiment: inhibition of human SENP8 cleavage activity – biochemical, luminescence, SAR follow-up (AID 504501). Type of assay: functional.

Assay [9] has as its target Latent membrane protein 1 (Human herpesvirus 4 (strain B95-8), UniProt P03230). As to the kind of experiment: LMP1 TES1 pathway selectivity over dsRED control – imaging, HEK293T, dual-color eGFP/dsRED, cherry-picks, selectivity assay for LMP1 NF-kB inhibitor project, dose response (AID 588398). It counts as functional, cell-based.
For assay [10], the system named is HEK293. As to the kind of experiment: EBV LMP1 TES2 canonical NF-kB signalling blockers – cell-based, HEK293, luciferase, cherry-pick, dose response (AID 588343). It counts as functional. To be noted: Homo sapiens.
Assay [11] addresses T5, Sentrin-specific protease 8. As to the kind of experiment: inhibition of sentrin protease 8 – biochemical, luminescence, set 2, SAR follow-up (AID 588601). Type of assay: functional.
Assay [12] addresses T2, Sentrin-specific protease 6. As to the kind of experiment: inhibition of human SENP6 catalytic domain – biochemical, luminescence, set 2, SAR follow-up (AID 588598). It counts as functional.
Assay [13] concerns the target T3, Sentrin-specific protease 7. As to the kind of experiment: inhibition of human SENP7 cleavage activity – biochemical, luminescence, set 2, SAR follow-up (AID 588600). Type of assay: functional.
The target of assay [14] is T4, Caspase-3. As to the kind of experiment: inhibition of recombinant caspase-3 activity – biochemical, luminescence, set 2, selectivity assay for SENP protease inhibitor project, SAR follow-up (AID 588599). It counts as functional.

Latent membrane protein 1, sequence (P03230 whole entry): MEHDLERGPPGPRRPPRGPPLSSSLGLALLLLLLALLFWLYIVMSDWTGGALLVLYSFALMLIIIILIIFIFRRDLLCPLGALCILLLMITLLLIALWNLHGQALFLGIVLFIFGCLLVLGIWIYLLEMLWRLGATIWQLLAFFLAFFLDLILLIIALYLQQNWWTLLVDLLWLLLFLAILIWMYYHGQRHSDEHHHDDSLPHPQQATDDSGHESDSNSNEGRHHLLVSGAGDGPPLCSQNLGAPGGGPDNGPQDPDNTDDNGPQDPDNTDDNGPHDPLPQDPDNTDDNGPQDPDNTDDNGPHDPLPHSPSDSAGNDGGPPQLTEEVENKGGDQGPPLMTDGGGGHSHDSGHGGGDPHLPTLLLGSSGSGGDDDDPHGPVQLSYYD

`COc1ccc2nc(N3CCN(C(=O)c4ccc([N+](=O)[O-])o4)CC3)sc2c1`: the EC50 is 0.434 µM (active) in [1], 39.5 µM (active) in [2] and 0.728 µM (active) in assay [4]. Moreover, the AC50 in assay [3] is 5.81 µM (active).
As for `CC(N/C=C1/C(=O)N(c2nc3ccccc3s2)N=C1C(F)(F)F)C12CC3CC(CC(C3)C1)C2` (centres undefined), the IC50 in [5] was 77.3 µM (active); in [6], 87.3 µM (active); in assay [7] it was 40.7 µM (active); in assay [8], 86.9 µM (active).
As to `COc1cccc(CNc2ncnc3ccc(-c4c(C)noc4C)cc23)c1`, the AC50 was 14.1 µM (active) in assay [9] and 10.3 µM (active) in assay [10].
Consider `O=C(Cc1ccc(C(F)(F)F)cc1[N+](=O)[O-])N/N=C/c1c[nH]c2ccccc12`, for which the IC50 in [11], in [12], in assay [13] and in assay [14] was > 99 µM (inactive) each time.
